{"source": "paper PMC6178282", "about": "“Comparative cell biological study of in vitro antitumor and antimetastatic activity on melanoma cells of GnRH-III-containing conjugates modified with short-chain fatty acids” (Beilstein Journal of Organic Chemistry, 2018)", "key": {"[1]": {"system": "A2058 melanoma cells", "experiment": "Apoptosis assay, Vitabright-48 thiol staining, NucleoCounter NC-250 image cytometer", "assay_type": "cell-based, human", "settings": "10^−5 M, 24 h, NucleoCounter NC-250, average of two parallels ± S.D., control 8.7 ± 0.72", "description": "(§1) The pro-apoptotic effects of conjugates and Dau at 10^−5 M concentration was studied after 24 h incubation by flow cytometry using FITC-annexin V (Sony Biotechnology, Weybridge, UK) and a novel image cytometer (NucleoCounter® NC-250^TM, ChemoMetec A/S, Lillerød, Denmark) using Vitabright-48™ (ChemoMetec A/S, Lillerød, Denmark), a cell permeable dye that reacts with thiol groups to form a fluorescent product. […]\n(§2) normalizing the viability of conjugate-treated cells with that of the control cells, and these indices of groups pretreated with inhibitors or DMSO were statistically compared.\n(§3) The apoptotic effect of conjugates and Dau was determined by a FACSCalibur flow cytometer (Becton Dickinson, San Jose, CA, USA) after staining with annexin V-FITC (Sony Biotechnology, Weybridge, UK) and NucleoCounter® NC-250™ cell analyzer (ChemoMetec A/S, Lillerød, Denmark) using Vitabright-48™, a cell-permeable fluorescent dye (ChemoMetec A/S, Lillerød, Denmark). […]\n(§4) The cells were dissociated by a TrypLE reagent (Thermo Fisher Scientific, Waltham, MA, USA) composed of recombinant enzyme protecting the cell’s surface proteins and it was followed by a centrifugation and a washing step with PBS. […] Before labeling with annexin V-FITC, the cells were measured by a flow cytometer for controlling the autofluorescence of cells in case of each treatment group. […]"}, "[2]": {"system": "A2058 melanoma cells", "experiment": "Apoptosis assay, annexin V-FITC flow cytometry", "assay_type": "cell-based, human", "settings": "10^−5 M, 24 h, average of two parallels ± S.D., control 10.6 ± 0.51", "description": "as §1, §2, §3, §4"}}}
{"smiles": "COc1cccc2c1C(=O)c1c(O)c3c(c(O)c1C2=O)C[C@@](O)(C(C)=O)C[C@@H]3O[C@H]1C[C@H](N)[C@H](O)[C@H](C)O1", "note": "[daunorubicin]", "values": [{"measurement": "the ratio of apoptotic cells, Vitabright-48™", "setting": "[1]", "value": "30.9 ± 0.68", "unit": "%"}, {"measurement": "the ratio of apoptotic cells, annexin V", "setting": "[2]", "value": "33.6 ± 5.51", "unit": "%"}]}
